Data as given in US20240383875A1, “Benzimidazole Pyridine Derivatives” (Hoffmann-La Roche Inc., priority 2022, published 2024).
pIC50: −log10 of the molar value.

Legend:
Format in all cases: biochemical
[1] = molecular target: SIK1 (Homo sapiens, UniProt P57059); assay: Enzymatic activity assay SIK1, RapidFire mass spectrometry (phosphorylation of CHK-peptide); conditions: RapidFire MS, inhibition of SIK1; read-out: SIK1 RF IC50
Summary of the method: (§1)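 Compounds (12-point, 3-fold, generally 30 μM to 170 pM) were pre-incubated 30 min at ambient temperature with SIK1 (5 nM), SIK2 (0.5 nM) or SIK3 (1.5 nM) in HEPES pH 7.0/magnesium acetate buffer. CHK-peptide (10 μM solution) and ATP (100 μM solution) were then added for 45 min before formic acid quench.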

[2] = molecular target: SIK2 (Homo sapiens, UniProt Q9H0K1); assay: Enzymatic activity assay SIK2, RapidFire mass spectrometry (phosphorylation of CHK-peptide); conditions: RapidFire MS, inhibition of SIK2; read-out: SIK2 RF IC50
Sequence of SIK2 (Q9H0K1 whole entry): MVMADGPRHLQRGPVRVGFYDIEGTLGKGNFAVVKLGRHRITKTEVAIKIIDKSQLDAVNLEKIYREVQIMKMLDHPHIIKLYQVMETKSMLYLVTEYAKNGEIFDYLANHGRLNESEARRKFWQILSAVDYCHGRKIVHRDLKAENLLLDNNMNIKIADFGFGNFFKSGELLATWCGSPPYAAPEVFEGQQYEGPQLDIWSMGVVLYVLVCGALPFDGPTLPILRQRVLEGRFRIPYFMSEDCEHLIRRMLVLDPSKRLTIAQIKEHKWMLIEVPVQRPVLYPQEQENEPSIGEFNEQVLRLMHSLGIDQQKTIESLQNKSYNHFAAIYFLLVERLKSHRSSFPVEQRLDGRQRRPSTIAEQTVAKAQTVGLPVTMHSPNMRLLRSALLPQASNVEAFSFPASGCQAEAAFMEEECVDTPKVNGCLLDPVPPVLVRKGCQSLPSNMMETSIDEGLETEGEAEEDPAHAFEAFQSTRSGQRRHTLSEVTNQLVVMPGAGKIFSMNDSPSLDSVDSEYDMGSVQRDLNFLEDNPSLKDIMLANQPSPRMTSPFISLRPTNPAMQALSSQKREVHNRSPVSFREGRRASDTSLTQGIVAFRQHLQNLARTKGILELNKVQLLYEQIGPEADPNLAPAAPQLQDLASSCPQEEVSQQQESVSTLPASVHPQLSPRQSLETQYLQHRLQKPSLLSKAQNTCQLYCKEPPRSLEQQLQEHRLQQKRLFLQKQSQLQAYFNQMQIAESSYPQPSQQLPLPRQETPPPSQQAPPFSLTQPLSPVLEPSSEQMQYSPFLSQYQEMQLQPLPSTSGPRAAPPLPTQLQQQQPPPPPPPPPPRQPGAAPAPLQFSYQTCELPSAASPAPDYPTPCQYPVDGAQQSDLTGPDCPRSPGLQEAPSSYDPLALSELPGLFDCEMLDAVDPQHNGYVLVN
Summary of the method: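 SIK2 (0.5 nM) in pH 7.0 HEPES buffer with 10 mM Mg acetate phosphorylates CHK-peptide (10 μM solution) with 100 μM ATP solution, 45 min ambient, then formic acid quench.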

[3] = molecular target: SIK3 (Homo sapiens, UniProt Q9Y2K2); assay: Enzymatic activity assay SIK3, RapidFire mass spectrometry (phosphorylation of CHK-peptide); conditions: RapidFire MS, inhibition of SIK3; read-out: SIK3 RF IC50
Sequence of SIK3 (Q9Y2K2 whole entry): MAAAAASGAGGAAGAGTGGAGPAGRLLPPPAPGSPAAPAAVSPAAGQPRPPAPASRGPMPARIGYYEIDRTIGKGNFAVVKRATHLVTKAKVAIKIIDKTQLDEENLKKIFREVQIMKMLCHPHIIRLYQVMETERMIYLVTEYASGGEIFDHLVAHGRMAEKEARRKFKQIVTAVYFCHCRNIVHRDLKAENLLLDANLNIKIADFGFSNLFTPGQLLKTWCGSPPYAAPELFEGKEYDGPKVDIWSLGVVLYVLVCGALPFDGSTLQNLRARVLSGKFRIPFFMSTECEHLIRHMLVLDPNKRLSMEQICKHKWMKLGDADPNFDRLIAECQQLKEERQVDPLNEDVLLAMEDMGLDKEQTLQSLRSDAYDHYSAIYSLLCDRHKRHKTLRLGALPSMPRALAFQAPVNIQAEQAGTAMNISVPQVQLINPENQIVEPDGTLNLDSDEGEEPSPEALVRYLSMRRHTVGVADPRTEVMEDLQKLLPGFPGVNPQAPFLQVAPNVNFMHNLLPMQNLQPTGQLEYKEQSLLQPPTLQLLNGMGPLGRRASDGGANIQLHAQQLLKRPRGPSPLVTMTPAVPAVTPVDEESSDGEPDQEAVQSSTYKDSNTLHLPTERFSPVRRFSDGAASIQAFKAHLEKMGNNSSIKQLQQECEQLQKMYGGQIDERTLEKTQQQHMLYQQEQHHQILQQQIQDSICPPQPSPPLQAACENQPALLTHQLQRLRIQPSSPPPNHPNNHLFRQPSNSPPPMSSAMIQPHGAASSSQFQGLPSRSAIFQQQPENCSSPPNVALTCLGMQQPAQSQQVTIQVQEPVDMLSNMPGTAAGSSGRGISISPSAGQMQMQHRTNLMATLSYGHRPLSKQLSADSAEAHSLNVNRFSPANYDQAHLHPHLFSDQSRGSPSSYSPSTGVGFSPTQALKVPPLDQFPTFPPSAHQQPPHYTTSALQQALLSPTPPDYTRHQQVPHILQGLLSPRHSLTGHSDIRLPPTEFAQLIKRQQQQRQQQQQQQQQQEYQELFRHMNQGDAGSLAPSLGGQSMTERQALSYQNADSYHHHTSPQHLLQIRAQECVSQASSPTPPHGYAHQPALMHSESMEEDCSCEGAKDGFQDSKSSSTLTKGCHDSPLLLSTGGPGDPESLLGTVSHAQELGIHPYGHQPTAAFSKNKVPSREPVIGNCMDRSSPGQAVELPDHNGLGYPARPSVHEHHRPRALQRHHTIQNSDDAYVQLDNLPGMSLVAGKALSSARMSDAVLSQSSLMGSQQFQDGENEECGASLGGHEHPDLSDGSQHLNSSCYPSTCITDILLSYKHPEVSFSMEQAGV
Summary of the method: as §1

Sequence of SIK1 (P57059 whole entry): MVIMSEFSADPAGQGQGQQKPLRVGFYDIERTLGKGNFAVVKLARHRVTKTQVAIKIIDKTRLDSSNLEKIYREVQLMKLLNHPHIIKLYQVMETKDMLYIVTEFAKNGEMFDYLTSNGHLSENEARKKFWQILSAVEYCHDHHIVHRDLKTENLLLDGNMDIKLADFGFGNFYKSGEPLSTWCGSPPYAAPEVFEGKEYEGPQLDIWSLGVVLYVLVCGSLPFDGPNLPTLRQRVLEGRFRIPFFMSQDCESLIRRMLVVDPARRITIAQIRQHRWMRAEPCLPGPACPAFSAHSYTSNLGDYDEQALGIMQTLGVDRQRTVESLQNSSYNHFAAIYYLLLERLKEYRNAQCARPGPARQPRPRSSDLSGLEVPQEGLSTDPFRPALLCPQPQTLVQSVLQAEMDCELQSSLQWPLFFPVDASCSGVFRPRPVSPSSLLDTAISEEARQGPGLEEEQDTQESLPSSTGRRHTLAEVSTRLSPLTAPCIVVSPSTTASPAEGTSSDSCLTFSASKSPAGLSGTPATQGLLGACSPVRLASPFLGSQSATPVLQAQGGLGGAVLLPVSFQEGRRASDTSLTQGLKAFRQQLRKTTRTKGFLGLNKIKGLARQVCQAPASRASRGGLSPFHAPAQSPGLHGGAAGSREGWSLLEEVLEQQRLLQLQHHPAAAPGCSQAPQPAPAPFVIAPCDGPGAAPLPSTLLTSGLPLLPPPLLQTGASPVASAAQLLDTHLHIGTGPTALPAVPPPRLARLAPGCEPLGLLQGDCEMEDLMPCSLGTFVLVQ

Structure (SMILES)	pIC50 [1]	pIC50 [2]	pIC50 [3]
Cc1cc(S(C)(=O)=O)c(Nc2ccc3c(c2)ncn3-c2ccc(C(C)O)c(-n3nc(C#N)cc3C)n2)nn1 (stereo not drawn) [Example 292, 1-[3-(1-hydroxyethyl)-6-[5-[(6-methyl-4-methylsulfonyl-pyridazin-3-yl)amino]benzimidazol-1-yl]-2-pyridyl]-5-methyl-pyrazole-3-carbonitrile]	6.21	7.47	7.62
Cc1ccc(Nc2ccc3c(c2)ncn3-c2nc(-n3nc(C#N)cc3C)c(C(C)O)cc2Cl)nn1 (stereo not drawn) [Example 245, 1-[5-Chloro-3-(1-hydroxyethyl)-6-[5-[(6-methylpyridazin-3-yl)amino]benzimidazol-1-yl]-2-pyridyl]-5-methyl-pyrazole-3-carbonitrile; formic acid]	5.19	7.14	7.17
CCn1ncc(-c2nc(-n3cnc4cc(Nc5ccc(C)nn5)ccc43)ccc2C(C)O)c1C (stereo not drawn) [Example 271, 1-[2-(1-Ethyl-5-methyl-pyrazol-4-yl)-6-[5-[(6-methylpyridazin-3-yl)amino]benzimidazol-1-yl]-3-pyridyl]ethanol; formic acid]	6.05	8.14	8.68
COc1cc2ncn(-c3ccc(C(C)O)c(-n4ccc(C(F)(F)F)n4)n3)c2cc1OC (stereo not drawn) [Example 63, 1-[6-(5,6-Dimethoxybenzimidazol-1-yl)-2-[3-(trifluoromethyl)pyrazol-1-yl]-3-pyridyl]ethanol]	7.03	7.46	6.82
Cc1cc(C(F)F)nn1-c1nc(-n2cnc3cc(Nc4ccc(C5(C)OCCO5)nn4)c(F)cc32)ccc1C(C)O (stereo not drawn) [Example 337, 1-[2-[3-(difluoromethyl)-5-methyl-pyrazol-1-yl]-6-[6-fluoro-5-[[6-(2-methyl-1,3-dioxolan-2-yl)pyridazin-3-yl]amino]benzimidazol-1-yl]-3-pyridyl]ethanol]	5.92	8.08	8.32
Cc1ccc(Nc2cc3ncn(-c4ccc(C(C)O)c(-n5nc(C(F)F)cc5C(F)F)n4)c3cc2F)nn1 (stereo not drawn) [Example 387, 1-[2-[3,5-bis(difluoromethyl)pyrazol-1-yl]-6-[6-fluoro-5-[(6-methylpyridazin-3-yl)amino]benzimidazol-1-yl]-3-pyridyl]ethanol]	6.34	8.64	8.74
Cc1cc(C#N)nn1-c1nc(-n2cnc3cc(Br)c(N4CCN(C5COC5)CC4)cc32)ccc1C(C)O (stereo not drawn) [Example 190, 1-[6-[5-Bromo-6-[4-(oxetan-3-yl)piperazino]benzimidazol-1-yl]-3-(1-hydroxyethyl)-2-pyridyl]-5-methyl-pyrazole-3-carbonitrile]	7.08	7.29	6.42
Cc1ccc(Nc2cc3ncn(-c4ccc(CO)c(-n5nc(C#N)cc5C)n4)c3cc2F)nn1 [Example 347, 1-[6-[6-fluoro-5-[(6-methylpyridazin-3-yl)amino]benzimidazol-1-yl]-3-(hydroxymethyl)-2-pyridyl]-5-methyl-pyrazole-3-carbonitrile]	5.95	8.20	8.41
Cc1nn(CC(F)(F)F)cc1-c1nc(-n2cnc3cc(Oc4ccc(CN5CCOCC5)nn4)ccc32)ccc1C(C)O (stereo not drawn) [Example 350, 1-[2-[3-methyl-1-(2,2,2-trifluoroethyl)pyrazol-4-yl]-6-[5-[6-(morpholinomethyl)pyridazin-3-yl]oxybenzimidazol-1-yl]-3-pyridyl]ethanol]	5.42	7.17	7.22
COCCOCCOCCOCCOCCOCCOCCOc1ccc(Nc2ccc3c(c2)ncn3-c2ccc(C(C)O)c(-n3nc(C#N)cc3C)n2)nn1 (stereo not drawn) [Example 293, 1-[3-(1-hydroxyethyl)-6-[5-[[6-[2-[2-[2-[2-[2-[2-(2-methoxyethoxy)ethoxy]ethoxy]ethoxy]ethoxy]ethoxy]ethoxy]pyridazin-3-yl]amino]benzimidazol-1-yl]-2-pyridyl]-5-methyl-pyrazole-3-carbonitrile]	6.88	8.22	8.55
COc1cc2ncn(-c3ccc([C@@H](C)O)c(-c4cccc(C#N)c4)n3)c2cc1OC [Example 38, (R)-3-(6-(5,6-Dimethoxy-1H-benzo[d]imidazol-1-yl)-3-(l-hydroxyethyl)pyridin-2-yl)benzonitrile]	6.80	7.23	6.59
COc1cc2ncn(-c3ccc([C@@H](C)O)c(-c4ccccc4C(N)=O)n3)c2cc1OC [Example 36, (R)-2-(6-(5,6-Dimethoxy-1H-benzo[d]imidazol-1-yl)-3-(1-hydroxyethyl)pyridin-2-yl)benzamide]	4.62	5.01	4.87
Cc1ccc(Nc2ccc3c(c2)ncn3-c2ccc(C(C)O)c(-c3nn(CC(F)(F)F)nc3C)n2)nn1 (stereo not drawn) [Example 308, 1-[6-[5-[(6-methylpyridazin-3-yl)amino]benzimidazol-1-yl]-2-[5-methyl-2-(2,2,2-trifluoroethyl)triazol-4-yl]-3-pyridyl]ethanol]	7.24	9.40	9.40
Cc1ccc(Nc2ccc3c(c2)ncn3-c2ccc(C(C)O)c(-n3nc(OC(F)F)cc3C)n2)nn1 (stereo not drawn) [Example 290, 1-[2-[3-(difluoromethoxy)-5-methyl-pyrazol-1-yl]-6-[5-[(6-methylpyridazin-3-yl)amino]benzimidazol-1-yl]-3-pyridyl]ethanol]	7.27	9.22	9.30
Cc1cc(C#N)nn1-c1nc(-n2cnc3cc(Nc4ccc(C(F)(F)F)nn4)ccc32)ccc1C(C)O (stereo not drawn) [Example 249, 1-[3-(1-Hydroxyethyl)-6-[5-[[6-(trifluoromethyl)pyridazin-3-yl]amino]benzimidazol-1-yl]-2-pyridyl]-5-methyl-pyrazole-3-carbonitrile]	7.27	8.66	9.10
Cc1cc(C#N)nn1-c1nc(-n2cnc3cc(N4CCN(C)CC4)ccc32)ccc1C(C)O (stereo not drawn) [Example 65, 1-[3-(1-Hydroxyethyl)-6-[5-(4-methylpiperazin-1-yl)benzimidazol-1-yl]-2-pyridyl]-5-methyl-pyrazole-3-carbonitrile]	6.19	7.20	7.09
Cc1ccc(Nc2cc3ncn(-c4ccc(C(C)O)c(-n5nc(OC(F)F)cc5C)n4)c3cc2CC2COC2)nn1 (stereo not drawn) [Example 407, 1-[2-[3-(difluoromethoxy)-5-methyl-pyrazol-1-yl]-6-[5-[(6-methylpyridazin-3-yl)amino]-6-(oxetan-3-ylmethyl)benzimidazol-1-yl]-3-pyridyl]ethanol]	6.49	7.89	7.64
Cc1cc(C#N)nn1-c1nc(-n2cnc3cc(N4CC[C@H](O)C4)ccc32)ccc1C(C)O (stereo partly drawn) [Example 78, 1-[3-(1-hydroxyethyl)-6-[5-[(3S)-3-hydroxypyrrolidin-1-yl]benzimidazol-1-yl]-2-pyridyl]-5-methyl-pyrazole-3-carbonitrile; formic acid]	7.48	7.94	7.69
Cc1cc(C#N)nn1-c1nc(-n2cnc3cc(N4CCC[C@H]4C#N)ccc32)ccc1C(C)O (stereo partly drawn) [Example 342, 1-[6-[5-[(2S)-2-cyanopyrrolidin-1-yl]benzimidazol-1-yl]-3-(1-hydroxyethyl)-2-pyridyl]-5-methyl-pyrazole-3-carbonitrile]	7.66	8.02	7.79
Cc1ccc(Nc2ccc3ncn(-c4ccc(C(C)O)c(-n5ncc(C#N)c5C)n4)c3c2)nn1 (stereo not drawn) [Example 150, 1-[3-(1-Hydroxyethyl)-6-[6-[(6-methylpyridazin-3-yl)amino]benzimidazol-1-yl]-2-pyridyl]-5-methyl-pyrazole-4-carbonitrile]	4.61	6.68	7.47
Cc1ccc(Nc2ccc3c(c2)ncn3-c2ccc(C(C)O)c(-c3cnn(CC(C)(F)F)c3C)n2)nn1 (stereo not drawn) [Example 284, 1-[2-[1-(2,2-difluoropropyl)-5-methyl-pyrazol-4-yl]-6-[5-[(6-methylpyridazin-3-yl)amino]benzimidazol-1-yl]-3-pyridyl]ethanol]	6.78	8.68	8.72
COc1cc(-c2nc(-n3cnc4cc(Nc5ccc(C)nn5)ccc43)ccc2C(C)O)c(C)cn1 (stereo not drawn) [Example 285, 1-[2-(2-methoxy-5-methyl-4-pyridyl)-6-[5-[(6-methylpyridazin-3-yl)amino]benzimidazol-1-yl]-3-pyridyl]ethanol]	6.30	7.94	8.19
Cc1ccc(Nc2ccc3c(c2)ncn3-c2ccc(C(C)O)c(NCC3(C#N)CC3)n2)nn1 (stereo not drawn) [Example 116, 1-[[[3-(1-Hydroxyethyl)-6-[5-[(6-methylpyridazin-3-yl)amino]benzimidazol-1-yl]-2-pyridyl]amino]methyl]cyclopropanecarbonitrile; formic acid]	5.79	7.33	8.02
COc1cc2c(cc1Nc1cnc(C)nc1)ncn2-c1ccc([C@H](C)O)c(-n2nc(OC(F)F)cc2C)n1 [Example 400, (1S)-1-[2-[3-(difluoromethoxy)-5-methyl-pyrazol-1-yl]-6-[6-methoxy-5-[(2-methylpyrimidin-5-yl)amino]benzimidazol-1-yl]-3-pyridyl]ethanol]	8.70	9.22	8.11
Cc1ccc(Nc2ccc3c(c2)ncn3-c2ccc(C(C)O)c(N3CC4CC4(C#N)C3)n2)nn1 (stereo not drawn) [Example 321, 3-[3-(1-hydroxyethyl)-6-[5-[(6-methylpyridazin-3-yl)amino]benzimidazol-1-yl]-2-pyridyl]-3-azabicyclo[3.1.0]hexane-1-carbonitrile]	5.96	7.72	8.46
